Reference: US7816331B2, “Substituted indazole-O-glucosides” (Janssen Pharmaceutica NV, priority 2003, dated 2010)

Tests used:
human SGLT1 = target: T1, human SGLT1 (Homo sapiens, UniProt P13866); experiment: Cell-based assay for sodium-dependent glucose transport (14C-AMG uptake), CHOK-SGLT1; settings: 10 uM compound, CHO-K1 cells stably expressing human SGLT1, Na-dependent 14C-AMG uptake; for inhibition at 10 µM: read-out: CHOK-SGLT1 % Inh (10 uM)
T1 construct: expressed in transfected cells
T1 sequence (P13866 1-664): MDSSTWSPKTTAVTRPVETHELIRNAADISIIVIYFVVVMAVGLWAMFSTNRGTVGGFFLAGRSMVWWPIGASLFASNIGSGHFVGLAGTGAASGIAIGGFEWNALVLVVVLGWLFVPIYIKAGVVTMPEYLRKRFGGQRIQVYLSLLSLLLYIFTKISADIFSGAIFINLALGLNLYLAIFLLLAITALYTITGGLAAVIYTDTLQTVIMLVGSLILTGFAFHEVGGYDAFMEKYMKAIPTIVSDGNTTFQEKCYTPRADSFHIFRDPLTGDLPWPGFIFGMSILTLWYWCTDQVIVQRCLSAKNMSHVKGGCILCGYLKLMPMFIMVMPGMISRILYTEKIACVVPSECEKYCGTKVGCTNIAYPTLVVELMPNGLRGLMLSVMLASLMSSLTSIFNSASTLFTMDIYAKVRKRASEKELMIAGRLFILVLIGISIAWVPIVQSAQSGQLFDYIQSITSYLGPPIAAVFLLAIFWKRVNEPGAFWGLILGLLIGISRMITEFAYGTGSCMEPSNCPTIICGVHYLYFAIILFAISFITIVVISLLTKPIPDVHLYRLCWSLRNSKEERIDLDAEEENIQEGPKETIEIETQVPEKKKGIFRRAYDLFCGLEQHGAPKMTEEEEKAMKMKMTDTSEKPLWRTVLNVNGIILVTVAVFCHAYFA
Protocol: (§1) Cloning of the human SGLT1 and human SGLT2 cDNAs and construction of the mammalian expression vector: The human SGLT1 cDNA (Genbank M24847) was cloned from human small intestine. Human SGLT2 cDNA (Genbank M95549) was cloned from human kidney. Both full cDNAs were subcloned into pcDNA and sequenced to verify the integrity of the construct. Generation of CHO-K1 cells stably expressing human SGLT1 or human SGLT2: Transfection of CHO-K1 cells was performed using DMRIE-C reagent (Life Technologies, Gaithersburg, Md.). Transfectants were then selected in the presence of the antibiotic G418 (Gibco-BRL, Grand Island, N.Y.) at 400 μg/ml. Individual clones were then characterized using the functional assay described below. Cell-based assay for sodium-dependent glucose transport: Cell lines stably expressing human SGLT1 or SGLT2 were then used for functional analysis of Na^+-dependent glucose uptake. Briefly, cells were plated at a density of 65,000 cells per well in a 96-well plate and allowed to grow for 48 hours. Cells were subsequently washed one time with Assay Buffer (50 mM HEPES pH 7.4, 20 mM Tris, 5 mM KCl, 1 mM MgCl2, 1 mM CaCl2 and 137 mM NaCl) and treated with compound in the absence or presence of NaCl for 15 minutes. Cells were then labeled with ^14C-α-methylglucopyranoside (AMG, Sigma, St. Louis, Mo.), a non-metabolizable glucose analog specific for sodium-dependent glucose transporters as previously described (Peng, H. and Lever J. E. Post-transcriptional regulation of Na^+/glucose cotransporter (SGLT1) gene expression in LLC-PK1 cells. J Biol Chem 1995; 270:20536-20542.). After 2 hours the labelled cells were washed three times with ice-cold PBS. After aspiration, cells were solubilized using Microscint 20 (Packard, Meriden, Conn.) and Na-dependent ^14C-AMG uptake was quantified by measuring radioactivity. Plates were counted in a TopCount (Packard, Meriden, Conn.). Results are reported as the % inhibition or IC50 value from a representative experiment. Variability for the functional assay was typically within 20%.

human SGLT2 = target: T2, human SGLT2 (Homo sapiens, UniProt P31639); experiment: Cell-based assay for sodium-dependent glucose transport (14C-AMG uptake), CHOK-SGLT2; settings: for IC50: CHO-K1 cells stably expressing human SGLT2, Na-dependent 14C-AMG uptake, read-out: CHOK-SGLT2 IC50 (uM) ± SEM; for inhibition at 10 µM: CHO-K1, read-out: CHOK-SGLT2 % Inh. @ 10 μM
T2 construct: expressed in transfected cells
T2 sequence (P31639 1-672): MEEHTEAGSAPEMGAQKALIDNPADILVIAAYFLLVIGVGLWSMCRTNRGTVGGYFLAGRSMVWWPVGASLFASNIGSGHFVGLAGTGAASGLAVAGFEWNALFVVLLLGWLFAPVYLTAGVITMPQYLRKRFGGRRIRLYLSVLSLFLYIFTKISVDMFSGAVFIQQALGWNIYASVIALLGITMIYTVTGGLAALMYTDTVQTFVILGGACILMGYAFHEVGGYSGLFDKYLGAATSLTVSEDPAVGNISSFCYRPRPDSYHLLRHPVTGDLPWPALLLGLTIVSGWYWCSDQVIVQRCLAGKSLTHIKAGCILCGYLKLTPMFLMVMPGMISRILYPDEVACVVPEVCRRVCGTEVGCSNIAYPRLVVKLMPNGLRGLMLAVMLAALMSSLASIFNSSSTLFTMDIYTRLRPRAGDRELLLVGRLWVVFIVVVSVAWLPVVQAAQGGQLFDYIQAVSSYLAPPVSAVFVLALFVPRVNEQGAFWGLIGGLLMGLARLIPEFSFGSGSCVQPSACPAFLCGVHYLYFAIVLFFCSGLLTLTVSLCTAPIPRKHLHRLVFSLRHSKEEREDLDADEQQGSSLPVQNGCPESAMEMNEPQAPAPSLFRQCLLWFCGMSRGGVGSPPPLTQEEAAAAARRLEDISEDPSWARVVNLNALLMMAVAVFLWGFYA
Protocol: as §1, with “experiment.” for “experiment. Variability for the functional assay was typically within 20%.”

Row | Compound | inhibition at 10 µM (human SGLT1) | IC50 (human SGLT2) | inhibition at 10 µM (human SGLT2) | CHOK-SGLT1 % Inh (10 uM) (human SGLT1)
1 | Cc1cc(O[C@@H]2O[C@H](CO)[C@@H](O)[C@H](O)[C@H]2O)c2c(CCc3ccc4c(c3)CCO4)n[nH]c2c1 [Example 1, 2-{3-[2-(2,3-Dihydro-benzofuran-5-yl)-ethyl]-6-methyl-1H-indazol-4-yloxy}β3-D-glucopyranoside] | 48% | 0.458 ± 0.061 µM |  | 
2 | CC(=O)OC[C@H]1O[C@@H](Oc2cc(C)cc3[nH]nc(CCc4ccc5c(c4)CCO5)c23)[C@H](O)[C@@H](O)[C@@H]1O [Example 2, 2-{3-[2-(2,3-Dihydro-benzofuran-5-yl)-ethyl]-6-methyl-1H-indazol-4-yloxy}-6-O— acetyl-β-D-glucopyranoside] | 14% |  | 69% | 
3 | Cc1cc(O[C@@H]2O[C@H](CO)[C@@H](O)[C@H](O)[C@H]2O)c2c(CCc3ccc4c(c3)OCCO4)n[nH]c2c1 [Example 3, 2-{3-[2-(2,3-Dihydro-benzo[1,4]dioxin-6-yl)-ethyl]-6-methyl-1H-indazol-4-yloxy}β-D-glucopyranoside] |  | 1.59 ± 0.025 µM |  | inactive
4 | Cc1cc(OC2OC(CO)C(O)C(O)C2O)c2c(CCc3ccc4ccccc4c3)n[nH]c2c1 [Example 4, 2-[6-Methyl-3-(2-naphthalen-2-yl-ethyl)-1H-indazol-4-yloxy]-β-D-glucopyranoside] | 18% | 1.95 ± 0.816 µM |  | 
5 | Cc1cc(OC2OC(CO)C(O)C(O)C2O)c2c(CCc3ccc4c(c3)CCCC4)n[nH]c2c1 [Example 5, 2-{6-Methyl-3-[2-(5,6,7,8-tetrahydro-naphthalen-2-yl)-ethyl]-1H-indazol-4-yloxy}-β-D-glucopyranoside] |  | 3.25 ± 0.461 µM |  | inactive
6 | COc1ccc2cc(CCc3n[nH]c4cc(C)cc(OC5OC(CO)C(O)C(O)C5O)c34)ccc2c1 [Example 6, 2-{3-[2-(6-Methoxy-naphthalen-2-yl)-ethyl]-6-methyl-1H-indazol-4-yloxy}-β-D-glucopyranoside] | 7% | 1 µM |  | 
7 | COC1CCc2cc(CCc3n[nH]c4cc(C)cc(OC5OC(CO)C(O)C(O)C5O)c34)ccc2C1 [Example 7, 2-{3-[2-(6-Methoxy-5,6,7,8-tetrahydro-naphthalen-2-yl)-ethyl]-6-methyl-1H-indazol-4-yloxy}β-D-glucopyranoside] |  |  | 43% | inactive
8 | COc1ccc2c(c1)CCC(CCc1n[nH]c3cc(C)cc(OC4OC(CO)C(O)C(O)C4O)c13)C2 [Example 8, 2-{3-[2-(6-Methoxy-1,2,3,4-tetrahydro-naphthalen-2-yl)-ethyl]-6-methyl-1H-indazol-4-yloxy}-β-D-glucopyranoside] |  |  | 67% | inactive
9 | COc1ccc(CCc2n[nH]c3cc(C)cc(OC4OC(CO)C(O)C(O)C4O)c23)cc1 [Example 9, 2-{3-[2-(4-Methoxy-phenyl)-ethyl]-6-methyl-1H-indazol-4-yloxy}β-D-glucopyranoside] | 11% | 3.05 ± 0.319 µM |  | 
10 | CCOc1ccc(CCc2n[nH]c3cc(C)cc(OC4OC(CO)C(O)C(O)C4O)c23)cc1 [Example 10, 2-{3-[2-(4-Ethoxy-phenyl)-ethyl]-6-methyl-1H-indazol-4-yloxy}β-D-glucopyranoside] | 5% | 2 ± 0.071 µM |  | 
11 | Cc1cc(OC2OC(CO)C(O)C(O)C2O)c2c(CCc3ccc(Cl)cc3)n[nH]c2c1 [Example 11, 2-{3-[2-(4-Chloro-phenyl)-ethyl]-6-methyl-1H-indazol-4-yloxy}-β-D-glucopyranoside] | 12% |  | 66% | 
12 | Cc1cc(OC2OC(CO)C(O)C(O)C2O)c2c(CCc3ccc(C(F)(F)F)cc3)n[nH]c2c1 [Example 12, 2-{3-[2-(4-Trifluoromethyl-phenyl)-ethyl]-6-methyl-1H-indazol-4-yloxy}β-D-glucopyranoside] |  |  | 36% | inactive
13 | Cc1cc(O[C@@H]2OC(CO)[C@@H](O)[C@H](O)[C@H]2O)c2c(CCc3ccc4occc4c3)n[nH]c2c1 (stereo partly drawn) [Example 13, 2-[3-(2-Benzofuran-5-yl-ethyl)-6-methyl-1H-indazol-4-yloxy]-β-D-glucopyranoside] | 52% |  |  | 
14 | CC(=O)OC[C@H]1O[C@@H](Oc2cc(C)cc3[nH]nc(CCc4ccc5occc5c4)c23)[C@H](O)[C@@H](O)[C@@H]1O [Example 14, 2-[3-(2-Benzofuran-5-yl-ethyl)-6-methyl-1H-indazol-4-yloxy]-6-O-acetyl-β-D-glucopyranoside] | 42% | 1.5 ± 0.071 µM |  | 
15 | Cc1cc(OC2OC(CO)C(O)C(O)C2O)c2c(CCc3ccc4c(c3)CCO4)nn(C)c2c1 [Example 15, 2-{3-[2-(2,3-Dihydro-benzofuran-5-yl)-ethyl]-1,6-dimethyl-1H-indazol-4-yloxy}-β-D-glucopyranoside] | 47% | 0.754 ± 0.069 µM |  | 
16 | Cc1cc(OC2OC(CO)C(O)C(O)C2O)c2c(CCc3ccc(NS(C)(=O)=O)cc3)n[nH]c2c1 [Example 16, 2-{3-[2-(4-Methanesulfonylamino-phenyl)-ethyl]-6-methyl-1H-indazol-4-yloxy}β-D-glucopyranoside] |  |  | 42% | inactive
